Positions count from the first letter of the chain named. Like-named read-outs stand apart in the source and are kept apart here. Where a SMILES comes first, the peptide text is derived from it.
Columns and labels:
[1] = test system: human Kv1.1; conditions: cited from earlier work
[2] = target: T1, KcsA-Kv1.3 T-only chimera (Streptomyces lividans, UniProt P0A334, A54D/A57S/G53D/G56T/I60S/L59F/Q58G/R52A/R64D/T61S/Y62I); assay: Phage-binding competition assay, KcsA-Kv1.3 T-only; parameters: species or system human Kv1.3 turret in Streptomyces lividans KcsA; conditions: for IC50: HgTx1-phage competition, T-only KcsA-Kv1.3, value given in figure, sigmoidal fit to means of three replicates, read-out: IC50 (Fig. 6E); for Rank, T-only chimera (Kv1.3): rank by competition IC50 among Vm24, HgTx1, KTX1
T1 construct: made in house; host or cells: E. coli XL1-Blue (pQE30)
T1 sequence (P0A334 1-160 R52A/G53D/A54D/G56T/A57S/Q58G/L59F/I60S/T61S/Y62I/R64D): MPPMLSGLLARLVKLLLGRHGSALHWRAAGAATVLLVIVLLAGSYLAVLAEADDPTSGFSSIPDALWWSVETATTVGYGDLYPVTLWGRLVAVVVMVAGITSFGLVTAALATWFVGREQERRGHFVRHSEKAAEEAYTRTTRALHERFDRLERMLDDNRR
Description: (§1) Phage stock solutions were diluted to working concentration with phage resuspension buffer supplemented with 2 mM DDM. For protein immobilization, the following amounts were used in a final volume of 50 μl/well: wt KcsA, 0.1 μg; KcsA-Kv1.1 T-only, 0.005 μg; KcsA-Kv1.1 T+F, 0.02 μg; KcsA-Kv1.2 T-only, 0.01 μg; KcsA-Kv1.2 T+F, 0.1 μg; KcsA-Kv1.3 T-only, 0.01 μg; and KcsA-Kv1.3 T+F, 0.1 μg. Protein samples were diluted in 50 μl of storage buffer (20 mM Tris pH8.0, 300 mM KCl, 2 mM DDM) and were added to the designated wells of a Pierce Clear, 96-Well Nickel Coated Plate (15442, Thermo Fisher Scientific), then incubated for 1 h at room temperature on a horizontal shaker at 130 rpm. The plate was blocked for 1 h at room temperature with 180 μl/well TBS-BSA supplemented with 1 mM DDM. Following blocking, the wells were washed 4× with washing buffer (300 μl TBS-Tween, 0.1% v/v) using a Wellwash Versa microplate washer (Thermo Fisher Scientific); then 50 μl phage solution (in TBS-BSA-Tween, 0.1% v/v, 2 mM DDM) at determined phage concentration was added to the wells and incubated for 1 h at room temperature on a horizontal shaker. The plate was washed 4× with washing buffer, then 50 μl anti-M13 IgG HRP (MA5-36125, Invitrogen) diluted to 1:2500 in TBS-Tween (0.1% v/v) was added to the wells and incubated for 1 h at room temperature. The plate was washed again 4× with 300 μl/well washing buffer. Finally, 50 μl/well 1-Step Ultra TMB-ELISA solution (34028, Thermo Fisher Scientific) was added to the wells, and the developing signal was stopped with 50 μl 1M HCl after 5 to 10 min. The light absorbance signal was read at 450 nm with Byonoy absorbance 96 plate reader (Byonoy GmbH).
(§2) For protein immobilization, the following amounts were used in a final volume of 50 μl/well: KcsA-Kv1.1 T-only, 0.005 μg; KcsA-Kv1.1 T+F, 0.01 μg; KcsA-Kv1.2 T-only, 0.025 μg; KcsA-Kv1.2 T+F, 0.0125 μg; KcsA-Kv1.3 T-only, 0.01 μg; and KcsA-Kv1.3 T+F, 0.1 μg. Protein samples were diluted in storage buffer. Binding of given concentrations of relevant ligand-displaying phages quantified by light absorbance ([…]) were investigated in a similar manner as in phage ELISA-binding assay, while different concentrations of competing toxin test substances were applied simultaneously. The results were converted to percent inhibitions (percent displacement) of the indicator phage binding, and relative affinities of the tested toxins were assessed by plotting percent displacements against log concentrations and determining half maximal inhibitory concentrations (IC50) by sigmoidal curve fitting using “Sigmoidal dose-response (variable slope) with least squares method” algorithm in GraphPad Prism 8 using the following equation: Y=Bottom+Top−Bottom/1+10^(LogEC50−×)⋅HillSlope

[3] = target: T2, KcsA-Kv1.1 T-only chimera (Streptomyces lividans, UniProt P0A334, A54E/A57S/G53E/G56E/I60S/L59F/P55A/Q58H/R52A/R64D/T61S/Y62I); assay: Phage-binding competition assay, KcsA-Kv1.1 T-only; parameters: species or system human Kv1.1 turret in Streptomyces lividans KcsA
T2 sequence (P0A334 1-160 R52A/G53E/A54E/P55A/G56E/A57S/Q58H/L59F/I60S/T61S/Y62I/R64D): T1 sequence (P0A334 1-160 R52A/G53D/A54D/G56T/A57S/Q58G/L59F/I60S/T61S/Y62I/R64D) with D53E, D54E, P55A, T56E, G58H
Description: as §1, §2

[4] = target: T3, KcsA-Kv1.1 T-only chimera (Streptomyces lividans, UniProt P0A334, R52A/G53E/A54E/P55A/G56E/A57S/Q58H/L59F/I60S/T61S/Y62I/R64D); assay: Phage-binding competition assay, KcsA-Kv1.1 T-only; parameters: species or system human Kv1.1 turret in Streptomyces lividans KcsA; conditions: for competition binding to KcsA-Kv1.1 T-only, in words: ShK-phage competition, native peptide, Fig. 8E (ligand-binding pattern); for Rank, T-only chimera (Kv1.1): rank by competition IC50 among ShK, KTX1, MTX
T3 sequence (P0A334 1-160 R52A/G53E/A54E/P55A/G56E/A57S/Q58H/L59F/I60S/T61S/Y62I/R64D): T1 sequence (P0A334 1-160 R52A/G53D/A54D/G56T/A57S/Q58G/L59F/I60S/T61S/Y62I/R64D) with D53E, D54E, P55A, T56E, G58H
Description: as §1, §2

Structure (SMILES)	inhibition of Kv1.1, in words [1]	IC50 [2]	Rank, T-only chimera (Kv1.3) [2]	IC50 ([1]; human Kv1.1 channel blocking, patch-clamp, read-out: IC50, Kv1.x blocking (Kv1.1))	IC50 ([3]; displacement of ShK-phage, KcsA-Kv1.1 T-only 0.005 μg/well on nickel-coated plate, mean ± SD (n = 3), NQ = not quantifiable, read-out: IC50, T-only chimera (Kv1.1))	competition binding to KcsA-Kv1.1 T-only, in words [4]	competition binding to KcsA-Kv1.1 T-only, in words ([4]; listed as MTX1)	Rank, T-only chimera (Kv1.1) [4]	IC50 ([3]; ShK-phage competition, T-only KcsA-Kv1.1, value given in figure, sigmoidal fit to means of three replicates, read-out: IC50 (Fig. 8E))
CC[C@H](C)[C@@H]1NC(=O)CNC(=O)[C@H](Cc2ccccc2)NC(=O)[C@H](CCC(N)=O)NC(=O)[C@H](C)NC(=O)[C@H](CCCCN)NC(=O)[C@@H]2CSSC[C@@H](C(=O)N[C@@H](Cc3ccc(O)cc3)C(=O)N3CCC[C@H]3C(=O)N[C@@H](Cc3c[nH]cn3)C(=O)O)NC(=O)[C@H](CCCCN)NC(=O)[C@@H]3CSSC[C@H](NC(=O)[C@H](CCC(N)=O)NC(=O)[C@H](CCCCN)NC(=O)[C@@H]4CCCN4C(=O)[C@H](CO)NC(=O)[C@H]([C@@H](C)O)NC(=O)[C@@H](NC(=O)[C@H](CCCCN)NC(=O)[C@@H](NC(=O)[C@H](CC(=O)O)NC(=O)[C@@H](NC(=O)[C@@H](NC(=O)[C@@H](N)[C@@H](C)O)C(C)C)[C@@H](C)CC)C(C)C)CSSC[C@H](NC(=O)[C@H](CCCCN)NC(=O)[C@H](C)NC(=O)CNC(=O)[C@H](C)NC(=O)[C@H](CCCNC(=N)N)NC1=O)C(=O)N[C@@H](CCSC)C(=O)N[C@@H](CC(N)=O)C(=O)NCC(=O)N[C@@H](CCCCN)C(=O)N3)C(=O)N[C@@H](CC(C)C)C(=O)N1CCC[C@H]1C(=O)N1CCC[C@H]1C(=O)N2 [HgTx1, Hongotoxin-1] (HELM PEPTIDE1{T.V.I.D.V.K.C.T.S.P.K.Q.C.L.P.P.C.K.A.Q.F.G.I.R.A.G.A.K.C.M.N.G.K.C.K.C.Y.P.H}$PEPTIDE1,PEPTIDE1,7:R3-29:R3|PEPTIDE1,PEPTIDE1,13:R3-34:R3|PEPTIDE1,PEPTIDE1,17:R3-36:R3$$$V2.0; N-terminus and C-terminus assumed)	equivalent high potency	0.671 nM	3						
CC[C@H](C)[C@@H]1NC(=O)[C@@H]2CSSC[C@H](NC(=O)[C@H](CO)NC(=O)[C@@H](N)C(C)C)C(=O)N[C@@H]([C@@H](C)O)C(=O)NCC(=O)N[C@@H](CO)C(=O)N[C@@H](CCCCN)C(=O)N[C@@H](CC(=O)O)C(=O)N[C@@H](CSSC[C@@H](C(=O)N[C@@H](CCCCN)C(=O)N[C@H]3CSSC[C@@H](C(N)=O)NC(=O)CNC(=O)[C@H](Cc4ccc(O)cc4)NC3=O)NC(=O)[C@H](CO)NC(=O)[C@H](CCCCN)NC(=O)[C@H](CC(N)=O)NC1=O)C(=O)N[C@@H](Cc1ccc(O)cc1)C(=O)N[C@@H](C)C(=O)N1CCC[C@H]1C(=O)N[C@H]1CSSC[C@H](NC(=O)CNC(=O)[C@H]([C@@H](C)O)NC(=O)[C@H](CCC(N)=O)NC(=O)[C@H](CCCCN)NC(=O)[C@H](CCCNC(=N)N)NC1=O)C(=O)N1CCC[C@H]1C(=O)N[C@@H](CC(N)=O)C(=O)N[C@@H](C)C(=O)N[C@@H](CCCCN)C(=O)N2 [MTX, Maurotoxin] (HELM PEPTIDE1{V.S.C.T.G.S.K.D.C.Y.A.P.C.R.K.Q.T.G.C.P.N.A.K.C.I.N.K.S.C.K.C.Y.G.C.[am]}$PEPTIDE1,PEPTIDE1,3:R3-24:R3|PEPTIDE1,PEPTIDE1,9:R3-29:R3|PEPTIDE1,PEPTIDE1,13:R3-19:R3|PEPTIDE1,PEPTIDE1,31:R3-34:R3$$$V2.0; N-terminus and C-terminus assumed)				> 100 nM	> 1000 nM	ShK > KTX1 > MTX	negligible binding	3	
CC[C@H](C)[C@@H]1NC(=O)[C@@H](NC(=O)[C@H](CO)NC(=O)[C@@H](N)CCCNC(=N)N)CSSC[C@@H](C(=O)O)NC(=O)[C@H]([C@@H](C)O)NC(=O)CNC(=O)[C@@H]2CSSC[C@@H]3NC(=O)[C@H](CCC(N)=O)NC(=O)[C@H](Cc4ccccc4)NC(=O)[C@H](C)NC(=O)[C@H]([C@@H](C)O)NC(=O)[C@H](CSSC[C@H](NC(=O)[C@H](Cc4ccccc4)NC(=O)[C@H](CO)NC(=O)[C@H](CC(C)C)NC(=O)[C@H](CCCNC(=N)N)NC(=O)[C@H](Cc4ccc(O)cc4)NC(=O)[C@H](CCCCN)NC(=O)[C@H](CCSC)NC(=O)[C@H](CO)NC(=O)[C@H](Cc4c[nH]cn4)NC(=O)[C@H](CCCCN)NC3=O)C(=O)N[C@@H](CCCNC(=N)N)C(=O)N[C@@H](CCCCN)C(=O)N[C@@H]([C@@H](C)O)C(=O)N2)NC(=O)[C@H](CCCNC(=N)N)NC(=O)[C@H](CO)NC(=O)[C@H](CCCCN)NC(=O)[C@@H]2CCCN2C(=O)[C@H]([C@@H](C)CC)NC(=O)[C@H]([C@@H](C)O)NC(=O)[C@H](CC(=O)O)NC1=O [ShK, Stichodactyla toxin]						ShK > KTX1 > MTX		1	0.317 nM
CC[C@H](C)[C@H](NC(=O)[C@H](C)NC(=O)[C@H](C)NC(=O)[C@H](C)N)C(=O)N[C@@H](CO)C(=O)N[C@H]1CSSC[C@@H]2NC(=O)[C@H](CCCCN)NC(=O)CNC(=O)[C@H](CC(N)=O)NC(=O)[C@H](CCCCN)NC(=O)[C@@H]3CSSC[C@@H](C(N)=O)NC(=O)[C@H](Cc4ccc(O)cc4)NC(=O)[C@H](Cc4ccc(O)cc4)NC(=O)[C@@H]4CSSC[C@H](NC(=O)[C@H](CCCCN)NC(=O)[C@@H]5CCCN5C(=O)[C@@H]5CCCN5C(=O)[C@H](CSSC[C@H](NC(=O)[C@H](CCCCN)NC(=O)[C@H](CCCNC(=N)N)NC(=O)[C@H](CC(N)=O)NC(=O)[C@H](CCSC)NC2=O)C(=O)N[C@@H](CCCCN)C(=O)N4)NC(=O)[C@H](CCC(=O)O)NC(=O)[C@@H]2CCCN2C(=O)[C@H](CO)NC(=O)CNC(=O)[C@H](C(C)C)NC1=O)C(=O)N[C@@H](CCCNC(=N)N)C(=O)N[C@@H](C)C(=O)N[C@@H](CCC(N)=O)C(=O)NCC(=O)N3 [Vm24, Vm24 toxin]		0.603 nM	2						

From PMC11002876, “KcsA-Kv1.x chimeras with complete ligand-binding sites provide improved predictivity for screening selective Kv1.x blockers” (The Journal of Biological Chemistry, 2024)
